Reference: ChEMBL document CHEMBL5131471, “Design, synthesis and mechanism studies of novel dual PARP1/BRD4 inhibitors against pancreatic cancer” (Eur J Med Chem, 2022)
Active and inactive are the calls of the source. The calls are words filed in the database; no cut-off is given here.

Assays:
SW1990 [1] = test: Induction of DNA damage in human SW1990 cells assessed as increase in tail DNA at 4 uM incubated for 4 days by comet assay; type: functional, cell-based; conditions: time 4.0 day
SW1990 [2] = test: Induction of apoptosis in human SW1990 cells assessed as early apoptotic cells at 1 uM measured after 4 days in presence of 3 uM Olaparib by Annexin V-FITC and propidium iodide staining based flow cytometry (reference value: 1.62%); type: functional; conditions: time 4 day
SW1990 [3] = test: Effect on TOPBP1 gene expression in human SW1990 cells at 4 uM by Q-PCR analysis; type: functional, cell-based
SW1990 [4] = test: Effect on FOXM1 gene expression in human SW1990 cells at 4 uM by Q-PCR analysis; type: functional, cell-based
SW1990 [5] = test: Effect on ALDH1A1 gene expression in human SW1990 cells at 4 uM by Q-PCR analysis; type: functional, cell-based
[6] = Toxicity in nude mouse xenografted with human SW1990 cells assessed as spleen damage at 15 mg/kg, ip administered for 28 days in presence of 45 mg/kg Olaparib by H and E staining based fluorescence microscopic analysis; type: organism-based; conditions: in vivo, 672 h, time 28 day
SW1990 [7] = test: Induction of DNA damage in human SW1990 cells assessed as increase in tail DNA at 1 uM incubated for 4 days in presence of 3 uM Olaparib by comet assay; type: functional, cell-based; conditions: time 4.0 day
SW1990 [8] = test: Effect on BRCA1 gene expression in human SW1990 cells at 1 uM in presence of Olaparib by Q-PCR analysis; type: functional, cell-based
SW1990 [9] = test: Effect on BRCA1 gene expression in human SW1990 cells at 4 uM by Q-PCR analysis; type: functional, cell-based
SW1990 [10] = test: Effect on TOPBP1 gene expression in human SW1990 cells at 1 uM in presence of Olaparib by Q-PCR analysis; type: functional, cell-based
SW1990 [11] = test: Effect on CDK6 gene expression in human SW1990 cells at 4 uM by Q-PCR analysis; type: functional, cell-based
Mus musculus [12] = organism: Mus musculus; conditions: dose 15.0 mg/kg, route ip, time 28.0 day
SW1990 [13] = test: Effect on E2F2 gene expression in human SW1990 cells at 1 uM in presence of Olaparib by Q-PCR analysis; type: functional, cell-based
SW1990 [14] = test: Effect on HEXIM1 gene expression in human SW1990 cells at 4 uM by Q-PCR analysis; type: functional, cell-based
SW1990 [15] = test: Upregulation of FOXM1 expression in human SW1990 cells at 6 uM measured after 4 days by Western blot analysis; type: functional, cell-based; conditions: time 4.0 day
[16] = Toxicity in nude mouse xenografted with human SW1990 cells assessed as liver damage at 45 mg/kg, ip administered for 28 days by H and E staining based fluorescence microscopic analysis; type: organism-based; conditions: in vivo, 672 h, time 28 day
SW1990 [17] = test: Upregulation of CDC25B expression in human SW1990 cells at 6 uM measured after 4 days by Western blot analysis; type: functional, cell-based; conditions: time 4.0 day
SW1990 [18] = test: Effect on E2F2 gene expression in human SW1990 cells at 6 uM by Q-PCR analysis; type: functional, cell-based
SW1990 [19] = test: Effect on CCNB1 gene expression in human SW1990 cells at 6 uM by Q-PCR analysis; type: functional, cell-based
Mus musculus [20] = test: Upregulation of CCND1 expression in nude mouse xenografted with human SW1990 cells at 45 mg/kg, ip measured after 4 days by Western blot analysis; type: functional, organism-based; conditions: time 4.0 day
SW1990 [21] = test: Upregulation of CDK6 expression in human SW1990 cells at 6 uM measured after 4 days by Western blot analysis; type: functional, cell-based; conditions: time 4.0 day
SW1990 [22] = test: Induction of BRCA2 accumulation in nucleus of human SW1990 cells at 6 uM measured after 4 days by Western blot analysis; type: functional, cell-based; conditions: time 4.0 day
Mus musculus [23] = test: Inhibition of CDC25B expression in nude mouse xenografted with human SW1990 cells at 30 mg/kg, ip measured after 4 days by Q-PCR analysis; type: functional, organism-based; conditions: time 4.0 day
Mus musculus [24] = test: Inhibition of homologous recombinant repair in nude mouse xenografted with human SW1990 cells assessed as reversal of olaparib-induced Rad51 expression at 30 mg/kg, ip after 4 days by Western blot analysis; type: functional, organism-based; conditions: time 4.0 day
Mus musculus [25] = test: Inhibition of CCNB1 expression in nude mouse xenografted with human SW1990 cells at 30 mg/kg, ip measured after 4 days by Western blot analysis; type: functional, organism-based; conditions: time 4.0 day
[26] = target: Poly [ADP-ribose] polymerase 1 (Homo sapiens, UniProt P09874); test: Inhibition of PARP1 (unknown origin) using biotinylated NAD+ as substrate by microplate reader method
SW1990 [27] = test: Downregulation of Ki67 expression in human SW1990 cells at 30 mg/kg, ip measured after 28 days by immuno histochemical staining based fluorescence microscopic analysis; type: functional, organism-based; conditions: time 28.0 day
[28] = Toxicity in nude mouse xenografted with human SW1990 cells assessed as kidney damage at 30 mg/kg, ip administered for 28 days by H and E staining based fluorescence microscopic analysis; type: organism-based; conditions: in vivo, 672 h, time 28 day
Mus musculus [29] = test: Inhibition of BRD4 expression in nude mouse xenografted with human SW1900 cells at 30 mg/kg, ip administered for 28 days by Q-PCR analysis; type: functional, organism-based; conditions: time 28.0 day
SW1990 [30] = test: Effect on HEXIM1 gene expression in human SW1990 cells at 1 to 2 uM by Q-PCR analysis; type: functional, cell-based; conditions: dose 1-2 µM
SW1990 [31] = test: Induction of apoptosis in human SW1990 cells assessed as early apoptotic cells at 2 uM measured after 4 days by Annexin V-FITC and propidium iodide staining based flow cytometry (reference value: 1.62%); type: functional; conditions: time 4 day
SW1990 [32] = test: Induction of apoptosis in human SW1990 cells assessed as early apoptotic cells at 1 uM measured after 4 days by Annexin V-FITC and propidium iodide staining based flow cytometry (reference value: 1.62%); type: functional; conditions: time 4 day
SW1990 [33] = test: Effect on CDK1 gene expression in human SW1990 cells at 1 to 2 uM by Q-PCR analysis; type: functional, cell-based; conditions: dose 1-2 µM
Mus musculus [34] = test: Inhibition of homologous recombinant repair in nude mouse xenografted with human SW1990 cells assessed as reversal of olaparib-induced HEXIM1 expression at 30 mg/kg, ip measured after 4 days by Western blot analysis; type: functional, organism-based; conditions: time 4.0 day
SW1990 [35] = test: Effect on FOXM1 gene expression in human SW1990 cells at 1 to 2 uM by Q-PCR analysis; type: functional, cell-based; conditions: dose 1-2 µM
Mus musculus [36] = test: Induction of DNA damage in human SW1990 cells xenografted in nude mouse assessed as increase in gammaH2AX at 30 mg/kg, ip by immunohistochemical analysis; type: functional, organism-based
SW1990 [37] = test: Inhibition of homologous recombinant repair in human SW1990 cells assessed as reversal of Olaparib-induced TOPBP1 expression at 1 to 2 uM after 4 days by Western blot analysis; type: functional, cell-based; conditions: dose 1-2 µM, time 4.0 day
SW1990 [38] = test: Induction of cell cycle arrest in human SW1990 cells assessed as accumulation of cells at S phase at 2 uM incubated for 4 days by propidium iodide staining based flow cytometry (reference value: 29.32%); type: functional; conditions: time 4 day
SW1990 [39] = test: Antiproliferative activity against human SW1990 cells assessed as inhibition of cell growth measured after 4 days by MTT assay; type: functional, cell-based; conditions: SW1990, 96 h
SW1990 [40] = test: Inhibition of homologous recombinant repair in human SW1990 cells assessed as reversal of Olaparib-induced c-Myc expression at 1 to 2 uM after 4 days by Western blot analysis; type: functional, cell-based; conditions: dose 1-2 µM, time 4.0 day

Sequence of Poly [ADP-ribose] polymerase 1 (P09874 whole entry): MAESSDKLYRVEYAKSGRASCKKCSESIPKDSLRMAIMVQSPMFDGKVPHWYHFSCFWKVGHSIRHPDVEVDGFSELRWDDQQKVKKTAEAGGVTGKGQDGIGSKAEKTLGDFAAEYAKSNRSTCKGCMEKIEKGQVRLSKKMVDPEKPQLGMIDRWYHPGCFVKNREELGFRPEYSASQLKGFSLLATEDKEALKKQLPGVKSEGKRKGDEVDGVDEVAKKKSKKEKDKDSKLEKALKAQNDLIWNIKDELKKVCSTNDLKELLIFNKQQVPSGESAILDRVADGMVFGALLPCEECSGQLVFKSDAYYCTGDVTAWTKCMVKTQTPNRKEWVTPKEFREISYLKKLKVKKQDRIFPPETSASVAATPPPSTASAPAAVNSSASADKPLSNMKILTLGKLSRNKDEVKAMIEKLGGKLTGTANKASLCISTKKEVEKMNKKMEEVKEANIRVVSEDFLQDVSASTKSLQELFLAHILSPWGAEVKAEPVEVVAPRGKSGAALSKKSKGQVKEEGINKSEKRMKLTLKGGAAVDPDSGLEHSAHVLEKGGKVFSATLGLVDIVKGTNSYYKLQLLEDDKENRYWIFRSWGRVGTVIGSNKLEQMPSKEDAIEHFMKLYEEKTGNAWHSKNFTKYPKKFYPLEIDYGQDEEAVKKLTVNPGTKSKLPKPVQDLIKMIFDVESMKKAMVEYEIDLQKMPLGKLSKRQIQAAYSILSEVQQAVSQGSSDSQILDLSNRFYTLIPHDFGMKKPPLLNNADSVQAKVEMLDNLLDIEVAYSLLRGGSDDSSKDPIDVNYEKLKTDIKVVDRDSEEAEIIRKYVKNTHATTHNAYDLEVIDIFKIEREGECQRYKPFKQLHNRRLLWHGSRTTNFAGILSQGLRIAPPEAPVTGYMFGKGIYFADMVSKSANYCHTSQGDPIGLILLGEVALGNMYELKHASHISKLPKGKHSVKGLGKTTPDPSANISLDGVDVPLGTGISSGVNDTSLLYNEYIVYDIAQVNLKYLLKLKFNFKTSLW

With `Cc1sc2c(c1C)C(c1ccc(Cl)cc1)=N[C@@H](CC(=O)OC(C)(C)C)c1nnc(C)n1-2` the Activity (SW1990 [1]) was “Active”, the Activity (SW1990 [2]) was 3.07% and the Activity (SW1990 [3]) was “Active”. For the same molecule, the Activity (SW1990 [4]) was “Active”, the Activity (SW1990 [5]) was “Active” and the Activity [6] was “Non-Toxic”. The Activity (SW1990 [7]) was “Active”, the Activity (SW1990 [8]) was “Active” and the Activity (SW1990 [9]) was “Active”. The Activity (SW1990 [10]) was “Active”, the Activity (SW1990 [11]) was “Active” and the inhibition (Mus musculus [12]) was “Active”. For the same molecule, the Activity (SW1990 [13]) was “Active” and the Activity (SW1990 [14]) was “Active”.
In the case of `O=C(c1cc(Cc2n[nH]c(=O)c3ccccc23)ccc1F)N1CCN(C(=O)C2CC2)CC1` [OLAPARIB], the Activity (SW1990 [15]) is reported as “Active”, the Activity [16] is reported as “Non-Toxic” and the Activity (SW1990 [17]) is reported as “Active”. For the same molecule, the Activity (SW1990 [18]) was “Active”, the Activity (SW1990 [19]) was “Active” and the Activity (Mus musculus [20]) was “Active”. The Activity (SW1990 [21]) was “Active” and the Activity (SW1990 [22]) was “Active”.
With `Cc1noc(C)c1-c1ccc2c(c1)C(c1ccccc1)N(Cc1nc3c(C(N)=O)cccc3[nH]1)C(=O)N2C` (stereo not given) the inhibition (Mus musculus [23]) was “Active”, the inhibition (Mus musculus [24]) was “Active” and the inhibition (Mus musculus [25]) was “Active”. For the same molecule, the IC50 [26] was 49 nM, the Activity (SW1990 [27]) was “Active” and the Activity [28] was “Non-Toxic”. The inhibition (Mus musculus [29]) was “Active”, the Activity (SW1990 [30]) was “Active” and the Activity (SW1990 [31]) was 1.06%. For the same molecule, the Activity (SW1990 [32]) was 3.02%, the Activity (SW1990 [33]) was “Active” and the inhibition (Mus musculus [34]) was “Active”. The Activity (SW1990 [35]) was “Active”, the Activity (Mus musculus [36]) was “Active” and the inhibition (SW1990 [37]) was “Active”. The Activity (SW1990 [38]) was 9%, the IC50 (SW1990 [39]) was 1340 nM and the inhibition (SW1990 [40]) was “Active”.
